# Assay results as given in article PMC8875489, “Pharmaceutical and Safety Profile Evaluation of Novel Selenocompounds with Noteworthy Anticancer Activity” (Pharmaceutics, 2022).
# Read-outs that look alike come from different tables or passages of the source.
# Key:
# [1] = system: Salmonella Typhimurium TA100 strain; conditions: for Fold Increase over Baseline / MI (mutagenic index) / B (binomial B value) / cytotoxic effect label beside B value: TA100; for Fold Increase over Baseline: alert ≥ 2.0; for MI (mutagenic index): mutagenic if MI ≥ 2; for B (binomial B value): threshold ≥ 0.99; for mutagenicity conclusion in Ames test: TA100, 1 and 10 µM
# Method: Safety profiles were evaluated using an in vitro microbiological method adapted to the microplate Ames test (384-well microtitration plate), which applies Salmonella enterica serovar Typhimurium bacterial strains (the gold standard in mutagenicity research). The experiment was performed according to a previously described protocol, which is provided in the Supplementary Materials. Briefly, the TA 100 strain (deprived of the ability to synthesize the histidine) was incubated with each tested compound in an exposure medium containing a limited amount of histidine. The reversion events were counted both manually and by means of a microplate reader. Each fold increase bigger than two times the baseline level (≥2.0-fold) was considered to indicate a mutagen alert. The experiments and data analyses were prepared according to the procedure that was previously described by Flückiger-Isler et al.. The assay was performed in triplicate. The positive control selected for the mutagenicity assays was NQNO, which causes genome point mutations; specifically, it promotes G:C → A:T transitions in the Salmonella Typhimurium TA-100 strain and other bacteria such as Vibrio harveyi and Escherichia coli.
# In the next step of the studies, the in vitro safety profiles of the tested selenocompounds were evaluated. All compounds were tested with the 384-well plate microfluctuation Ames test. The mutagenic index (MI) was used as the measure of mutagenicity.
# 1.5. Safety profile evaluation - Ames microplate mutagenicity assay
# Safety profile was evaluated by the means of in vitro microbiological methods – adapted to microplate Ames test, which applies Salmonella enterica serovar Typhimurium bacterial strains (the gold standard in mutagenicity research).
# 1.5.1. Compounds preparation
# To evaluate the impact of tested compounds and of references on Salmonella enterica serovar Typhimurium (onwards Salmonella Typhimurium) TA-100 strain growth by means of the Ames test, the compounds or the reference were dissolved in the pure DMSO, to obtain the corresponding 10 mM stock solutions. Working solutions for tested compounds (25 μM and 250 μM concentrations) were prepared before the assay in DMSO.
# 1.5.2. Microplate Ames mutagenicity assay protocol
# Prior to the experiment, Salmonella Typhimurium was cultured overnight (NB-2 liq-uid medium in the presence of 25 μg/mL ampicillin). At the day of the experiment, fresh dilutions of the tested compounds (25 μM and 250 μM), reference compound (methylse-leninic acid) and standard mutagen (4-nitroquinoline-N-oxide at 2.5 μM and 12.5 μM) in DMSO were prepared. The positive control selected for the mutagenicity assays was NQNO, which causes point mutations at the genome. Specifically, it promotes G:C → A:T transitions in Salmonella Typhimurium TA-100 strain and in the other bacteria such as Vib-rio harveyi and Escherichia coli.
# The mutagenic potential of the tested derivatives was evaluated by the incubation of the abovementioned bacteria (deprived of the ability to synthesize the histidine) with spe-cific concentrations of the tested compounds (for 90 min in the exposure medium), con-taining a limited amount of histidine (enough to provide approximately 2-3 cell divisions).
# The occurrence of reversion events to histidine prototrophy was observed through the bacterial growth in the indicator medium without histidine after 48 h of incubation in temperature of 37° C [45]. The final compound and the mutagenic agent concentrations in each single well of a 384 well plate were 1 μM and 10 μM for the compounds; and 0.1 μM and 0.5 μM for the mutagen. Lastly, both a manual count and a microplate reader were used to obtain the results. The medium control baseline (MCB) was estimated as the mean number of revertants in the medium control plus one standard deviation. Each fold in-crease bigger than two times the baseline level ≥ 2.0 was considered as a mutagen alert.
# [2] = PAMPA membrane permeability test (capillary electrophoresis); type: in vitro ADME; conditions: for Papp at 5 h, 50 µM: 50 μM in PBS pH 7.4, 5 h, room temperature, read-out: In Vitro Permeability; for % Perm. (percentage that crossed from the donor well to the acceptor well): 5 h
# Method: The passive transport and membrane absorption of 5 selected selenocompounds (EDA-58, EDA-71, EDA-119, EDA-122, and EDA-A6) were evaluated with the in vitro parallel artificial membrane permeability assay (PAMPA). This PAMPA assay could provide better predictability and membrane permeability correlations compared to the data obtained for human absorption in the Caco-2 cell line. The Precoated PAMPA Plate System Gentest™ (Corning, Bradford, MA, USA) was used to perform the permeability assay for the 5 selected Se compounds. The protocol of the permeability assay was similar to the previously described ones and is detailed in the Supplementary Materials.
# Five selenocompounds (EDA-58, EDA-71, EDA-119, EDA-122, and EDA-A6) were evaluated with the PAMPA in vitro assay using the CE technique.
# [formula] Scheme 1 Calculation of the in vitro permeability (cm/s). A (filter area) cm^2 = 0.3; VD (donor well volume) mL = 0.3; VA (acceptor well volume) mL = 0.2; t (incubation time) seconds = 18,000; CA(t) (compound concentration in acceptor well at time t); CD(t) (compound concentration in donor well at time t). […]
# 1.3. PAMPA test: membrane permeability evaluation.
# The passive transport and the membrane absorption of 5 selected selenocompounds (EDA-58, EDA-71, EDA-119, EDA-122, EDA-A6) were evaluated in the in vitro Parallel Artificial Membrane Permeability Assay (PAMPA). The protocol of the permeability assay was similar to the ones previously described.
# 1.3.1. Stock solutions and sample preparation for PAMPA test
# Working solutions of the tested compounds at the concentration of the 50 μM in the phosphate saline buffer (PBS, pH 7.4) were prepared from the stocks in the pure dimethyl sulfoxide (DMSO) and stored at -20° C. Moreover, to draw the precise calibration curves for each tested (EDA-58, EDA-71, EDA-119, EDA-122, EDA-A6) and reference com- […]
# The Precoated PAMPA Plate System Gentest™ (Corning, Bradford, MA, USA) was used to perform permeability assay for the 5 selected Se-compounds. The essential part of […]
# solvents. PAMPA Plate System was brought to room temperature 30 min before use.
# The 96-well filter plate precoated with lipids was used as a permeation acceptor, whereas the 96-well receiver plate acted as the permeation donor plate. Therefore, the compound solutions were added to the wells (300 μL/well) of the receiver plate and PBS was added to wells (200 μL/well) of the precoated filter plate.
# Then, the filter plate was coupled with the receiver plate and both were incubated at room temperature for five hours without agitation. […] Fi-nally, the permeability coefficients (Pe, [cm/s]) of the tested compounds were estimated using the formula provided by the PAMPA Plate System manufacturer.
# 1.3.3. Capillary electrophoresis (CE) analytical method […]
# were calculated in both the donor and acceptor compartments using the capillary electro-
SMILES,Fold Increase over Baseline ([1]; 1 µM),MI (mutagenic index) ([1]; 1 µM),B (binomial B value) ([1]; 1 µM),Fold Increase over Baseline ([1]; 10 µM),MI (mutagenic index) ([1]; 10 µM),B (binomial B value) ([1]; 10 µM),permeability compared with caffeine [2],"Papp at 5 h, 50 µM [2]",% Perm. (percentage that crossed from the donor well to the acceptor well) [2],cytotoxicity for Salmonella Typhimurium in Ames test ([1]; 10 µM),cytotoxic effect label beside B value ([1]; 10 µM),mutagenicity conclusion in Ames test [1]
"O=C(C[Se]C(=O)c1ccccc1)Oc1ccccc1 [EDA-93, phenyl 2-(benzoylselanyl)acetate]",1.02,1.27,0.96,0.87,1.08,0.80,–,–,–,–,–,–
"CC(=O)C[Se]C(=O)c1ccc(Cl)cc1 [EDA-71, Se-(2-oxopropyl) 4-chlorobenzoselenoate]",0.60,0.54,0.34,0.89,0.79,0.98,higher permeability values than caffeine,3.86 ×10⁻⁶ cm/s,6.81%,–,–,–
"C[Se]C(=O)c1cccc(C(=O)[Se]C)n1 [EDA-119, Se,Se-dimethyl pyridine-2,6-bis(carboselenoate)]",0.54,0.56,0.24,0.92,0.96,0.90,lower permeability values than caffeine,3.27 ×10⁻⁶ cm/s,5.79%,–,–,–
"C[Se]C(=O)c1ccc(C(=O)[Se]C)s1 [EDA-122, Se,Se-dimethyl thiophene-2,5-bis(carboselenoate)]",0.63,0.84,0.14,1.08,1.46,0.94,higher permeability values than caffeine,4.67 ×10⁻⁶ cm/s,8.20%,–,–,–
"C[Se]C(=O)c1ccc(C(=O)[Se]C)cc1 [EDA-109, Se,Se-dimethyl benzene-1,4-bis(carboselenoate)]",0.55,0.96,0.07,0.39,0.67,–,–,–,–,cytotoxic activity was observed,C (data points that are significantly smaller (B ≤ 0.01 (bolded)) than the mean number of spontaneous revertants are labelled C for “cytotoxic effect”),–
"CC(C)(C)C(=O)C[Se]C(=O)c1ccc(Cl)cc1 [EDA-73, Se-(3,3-dimethyl-2-oxobutyl) 4-chlorobenzoselenoate]",0.84,1.28,0.72,0.52,0.79,0.04,–,–,–,–,–,–
"COC(=O)C[Se]C(=O)c1cc(OC)cc(OC)c1 [EDA-58, methyl 2-((3,5-dimethoxybenzoyl)selanyl)acetate]",0.67,0.57,0.80,1.78,1.51,1.00,lower permeability values than caffeine,2.22 ×10⁻⁶ cm/s,3.95%,–,–,–
"COC(=O)C[Se]C(=O)c1cc(OC)c(OC)c(OC)c1 [EDA-26, methyl 2-((3,4,5-trimethoxybenzoyl)selanyl)acetate]",0.96,1.51,0.92,1.37,–,–,–,–,–,–,–,may have had mutagenic potential
"C[Se]C(=O)c1cccc(C(=O)[Se]C)c1 [EDA-120, Se,Se-dimethyl benzene-1,3-bis(carboselenoate)]",–,1.24,1.00,–,1.46,1.00,–,–,–,–,–,non-mutagenic
"O=C1[Se]C(=O)c2ccccc21 [EDA-A6, benzo[c]selenophene-1,3-dione]",1.08,1.23,0.94,0.33,0.38,0.001,higher permeability values than caffeine,3.44 ×10⁻⁶ cm/s,6.08%,could have been cytotoxic,C (data points that are significantly smaller (B ≤ 0.01 (bolded)) than the mean number of spontaneous revertants are labelled C for “cytotoxic effect”),–
"COc1cc(OC)cc(C(=O)[Se]CC(=O)C(C)(C)C)c1 [EDA-74, Se-(3,3-dimethyl-2-oxobutyl) 3,5-dimethoxybenzoselenoate]",0.98,0.88,0.94,0.76,0.69,0.68,–,–,–,–,–,–
